Laboratory results from patent publication US10212936B2, “Molecules having pesticidal utility, and intermediates, compositions, and processes, related thereto” (priority 2014, dated 2019).

Experiments:
Format in all cases: in vivo
[1] = test system: Beet Armyworm (Spodoptera exigua, LAPHEG); assay: Bioassay on Beet Armyworm (BAW), 128-well diet tray assay; conditions: 168 h, 50 μg/cm^2 on artificial diet, second instar larvae, five to seven days, 25° C., read-out: BAW % Control (or Mortality) rating
Summary of the method: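 Second instar larvae, one to five per well, placed on artificial diet treated with 50 μg/cm^2 compound (in 90:10 acetone-water) and dried; eight wells per compound. Held at 25° C, 14:10 light-dark, five to seven days. Percent mortality recorded per well and averaged.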

[2] = test system: Cabbage Looper (Trichoplusia ni, TRIPNI); assay: Bioassay on Cabbage Looper (CL), 128-well diet tray assay; conditions: 168 h, 50 μg/cm^2 on artificial diet, second instar larvae, five to seven days, 25° C., read-out: CL % Control (or Mortality) rating
Summary of the method: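 Diet-tray test with one to five second-instar larvae per well on artificial diet treated with 50 μg/cm^2 compound (in 90:10 acetone-water), dried, eight wells per molecule. Held 25 °C, 14:10 light-dark for five to seven days; percent mortality averaged over the eight wells.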

[3] = test system: Green Peach Aphid (Myzus persicae, MYZUPE); assay: Bioassay on Green Peach Aphid (GPA), foliar spray on cabbage seedlings; conditions: 72 h, 200 ppm foliar spray on cabbage seedlings, three days, Abbott corrected % control, read-out: GPA % Control (or Mortality) rating
Procedure: Example B: Bioassays on Green Peach Aphid (Myzus persicae, MYZUPE) (“GPA”)
Certain molecules disclosed in this document were tested against GPA using procedures described in the following example. In the reporting of the results, the “GPA Rating Table” was used (See Table Section).
Cabbage seedlings grown in 3-inch pots, with 2-3 small (3-5 cm) true leaves, were used as test substrate. The seedlings were infested with 20-50 GPA (wingless adult and nymph stages) one day prior to chemical application. Four pots with individual seedlings were used for each treatment. Test molecules (2 mg) were dissolved in 2 mL of acetone/methanol (1:1) solvent, forming stock solutions of 1000 ppm test molecule. The stock solutions were diluted 5× with 0.025% Tween 20 in water to obtain the solution at 200 ppm test molecule. A hand-held aspirator-type sprayer was used for spraying a solution to both sides of […] leaves until runoff. Reference plants (solvent check) were sprayed with the diluent only containing 20% by volume of acetone/methanol (1:1) solvent. Treated plants were held in a holding room for three days at approximately 25° C. and ambient relative humidity (RH) prior to grading. Evaluation was conducted by counting the number of live aphids per plant under a microscope. Percent Control was measured by using Abbott's correction formula (W. S. Abbott, “A Method of Computing the Effectiveness of an Insecticide” J. Econ. Entomol. 18 (1925), pp. 265-267) as follows. Corrected % Control=100*(X−Y)/X • where • X=No. of live aphids on solvent check plants and • Y=No. of live aphids on treated plants
The results are indicated in the table entitled “Table ABC: Biological Results” (See Table Section).

[4] = test system: Yellow Fever Mosquito (Aedes aegypti, AEDSAE); assay: Bioassay on Yellow Fever Mosquito (YFM) larvae, 96-well plate; conditions: about 1 day-old larvae, 4000 ppm DMSO master plate diluted, graded after 3 days
Summary of the method: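 Compounds from 4000 ppm DMSO master stocks, diluted in 90:10 water:acetone, dispensed into wells and infested with about 1-day-old Aedes aegypti larvae in liver-powder water. Six replicate plates, covered and held at room temperature for 3 days, then each well scored for mortality.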

[5] = test system: Corn Earworm (Helicoverpa zea, HELIZE); assay: Bioassay on Corn Earworm (CEW), 128-well diet tray assay; conditions: 168 h, 50 μg/cm^2 on artificial diet, second instar larvae, five to seven days, 25° C., read-out: CEW % Control (or Mortality) rating
Procedure: Example A: Bioassays on Beet Armyworm (Spodoptera exigua, LAPHEG) (“BAW”), Corn Earworm (Helicoverpa zea, HELIZE) (“CEW”), and Cabbage Looper (Trichoplusia ni, TRIPNI) (“CL”)
Certain molecules disclosed in this document were tested against BAW, CEW, and CL using procedures described in the following examples. In the reporting of the results, the “BAW, CEW, & CL Rating Table” was used (See Table Section).
Bioassays on CEW were conducted using a 128-well diet tray assay. one to five second instar CEW larvae were placed in each well (3 mL) of the diet tray that had been previously filled with 1 mL of artificial diet to which 50 μg/cm^2 of the test molecule (dissolved in 50 μL of 90:10 acetone-water mixture) had been applied (to each of eight wells) and then allowed to dry. Trays were covered with a clear self-adhesive cover, and held at 25° C., 14:10 light-dark for five to seven days. Percent mortality was recorded for the larvae in each well; activity in the eight wells was then averaged. The results are indicated in the table entitled “Table ABC: Biological Results” (See Table Section).

| SMILES | mortality at 50 µg/cm2 [1] [%] | mortality at 50 µg/cm2 [2] [%] | mortality at 200 ppm [3] [%] | YFM % Control (or Mortality) rating [4] | mortality at 50 µg/cm2 [5] [%] |
| --- | --- | --- | --- | --- | --- |
| Cc1cc(Cl)ccc1-n1nccc1NC(=O)Nc1ccc(-c2ncn(-c3ccc(OC(F)(F)F)cc3)n2)cc1 [F3, 1-(1-(4-Chloro-2-methylphenyl)-1H-pyrazol-5-yl)-3-(4-(1-(4-(trifluoromethoxy)phenyl)-1H-1,2,4-triazol-3-yl)phenyl)urea] | 50 to 100 | 50 to 100 | 0 | A (80-100) | – |
| O=C(Nc1ccc(-c2ncn(-c3ccc(OC(F)(F)F)cc3)n2)cc1)Nc1ccnn1-c1c(Cl)cccc1Cl [F4, 1-(1-(2,6-Dichlorophenyl)-1H-pyrazol-5-yl)-3-(4-(1-(4-(trifluoromethoxy)phenyl)-1H-1,2,4-triazol-3-yl)phenyl)urea] | 50 to 100 | 50 to 100 | 0 to 80 | A (80-100) | – |
| Cc1ccc(F)cc1-n1nccc1NC(=O)Nc1ccc(-c2ncn(-c3ccc(OC(F)(F)F)cc3)n2)cc1 [F5, 1-(1-(5-Fluoro-2-methylphenyl)-1H-pyrazol-5-yl)-3-(4-(1-(4-(trifluoromethoxy)phenyl)-1H-1,2,4-triazol-3-yl)phenyl)urea] | 50 to 100 | 50 to 100 | 0 | A (80-100) | – |
| CCc1ccccc1-n1nccc1NC(=O)Nc1ccc(-c2ncn(-c3ccc(OC(F)(F)F)cc3)n2)cc1 [F6, 1-(1-(2-Ethylphenyl)-1H-pyrazol-5-yl)-3-(4-(1-(4-(trifluoromethoxy)phenyl)-1H-1,2,4-triazol-3-yl)phenyl)urea] | 50 to 100 | 50 to 100 | 0 | A (80-100) | – |
| Cc1ccc(C)c(-n2nccc2NC(=O)Nc2ccc(-c3ncn(-c4ccc(OC(F)(F)F)cc4)n3)cc2)c1 [F7, 1-(1-(2,5-Dimethylphenyl)-1H-pyrazol-5-yl)-3-(4-(1-(4-(trifluoromethoxy)phenyl)-1H-1,2,4-triazol-3-yl)phenyl)urea] | 50 to 100 | 50 to 100 | 0 to 80 | A (80-100) | – |
| Cc1ccc(-n2nccc2NC(=O)Nc2ccc(-c3ncn(-c4ccc(OC(F)(F)F)cc4)n3)cc2)c(C)c1 [F9, 1-(1-(2,4-Dimethylphenyl)-1H-pyrazol-5-yl)-3-(4-(1-(4-(trifluoromethoxy)phenyl)-1H-1,2,4-triazol-3-yl)phenyl)urea] | 50 to 100 | 50 to 100 | 0 to 80 | A (80-100) | – |
| Cc1cc(C)c(-n2nccc2NC(=O)Nc2ccc(-c3ncn(-c4ccc(OC(F)(F)F)cc4)n3)cc2)c(C)c1 [F11, 1-(1-Mesityl-1H-pyrazol-5-yl)-3-(4-(1-(4-(trifluoromethoxy)phenyl)-1H-1,2,4-triazol-3-yl)phenyl)urea] | 50 to 100 | 50 to 100 | 0 | A (80-100) | – |
| O=C(Nc1ccc(-c2ncn(-c3ccc(OC(F)(F)F)cc3)n2)cc1)Nc1ccnn1-c1cc(Cl)ccc1Cl [F12, 1-(1-(2,5-Dichlorophenyl)-1H-pyrazol-5-yl)-3-(4-(1-(4-(trifluoromethoxy)phenyl)-1H-1,2,4-triazol-3-yl)phenyl)urea] | 50 to 100 | 50 to 100 | 0 to 80 | A (80-100) | – |
| COc1ccccc1-n1nccc1NC(=O)Nc1ccc(-c2ncn(-c3ccc(OC(F)(F)F)cc3)n2)cc1 [F13, 1-(1-(2-Methoxyphenyl)-1H-pyrazol-5-yl)-3-(4-(1-(4-(trifluoromethoxy)phenyl)-1H-1,2,4-triazol-3-yl)phenyl)urea] | 50 to 100 | 50 to 100 | 0 | A (80-100) | – |
| O=C(Nc1ccc(-c2ncn(-c3ccc(OC(F)(F)C(F)(F)F)cc3)n2)cc1)Nc1ccnn1-c1c(Cl)cccc1Cl [F14, 1-(1-(2,6-Dichlorophenyl)-1H-pyrazol-5-yl)-3-(4-(1-(4-(perfluoroethoxy)phenyl)-1H-1,2,4-triazol-3-yl)phenyl)urea] | 50 to 100 | 50 to 100 | 0 to 80 | A (80-100) | – |
| Cc1ccc(-n2nccc2NC(=O)Nc2ccc(-c3ncn(-c4ccc(OC(F)(F)C(F)(F)F)cc4)n3)cc2)c(C)c1 [F15, 1-(1-(2,4-Dimethylphenyl)-1H-pyrazol-5-yl)-3-(4-(1-(4-(perfluoroethoxy)phenyl)-1H-1,2,4-triazol-3-yl)phenyl)urea] | 50 to 100 | 50 to 100 | 0 to 80 | A (80-100) | – |
| O=C(Nc1ccc(-c2ncn(-c3ccc(OC(F)(F)F)cc3)n2)cc1)Nc1nonc1-c1c(Cl)cccc1Cl [F42, 1-(4-(2,6-Dichlorophenyl)-1,2,5-oxadiazol-3-yl)-3-(4-(1-(4-(trifluoromethoxy)phenyl)-1H-1,2,4-triazol-3-yl)phenyl)urea] | 50 to 100 | 50 to 100 | – | D (No activity noticed in this bioassay) | 50 to 100 |
| Cc1cc(Cl)ccc1-c1nonc1NC(=O)Nc1ccc(-c2ncn(-c3ccc(OC(F)(F)F)cc3)n2)cc1 [F43, 1-(4-(4-Chloro-2-methylphenyl)-1,2,5-oxadiazol-3-yl)-3-(4-(1-(4-(trifluoromethoxy)phenyl)-1H-1,2,4-triazol-3-yl)phenyl)urea] | 50 to 100 | 50 to 100 | – | A (80-100) | 50 to 100 |
| CCc1ccccc1-c1nonc1NC(=O)Nc1ccc(-c2ncn(-c3ccc(OC(F)(F)F)cc3)n2)cc1 [F44, 1-(4-(2-Ethylphenyl)-1,2,5-oxadiazol-3-yl)-3-(4-(1-(4-(trifluoromethoxy)phenyl)-1H-1,2,4-triazol-3-yl)phenyl)urea] | 50 to 100 | 50 to 100 | – | D (No activity noticed in this bioassay) | 50 to 100 |
| O=C(Nc1ccc(-c2ncn(-c3ccc(OC(F)(F)F)cc3)n2)cc1)Nc1nonc1-c1ccccc1OC(F)(F)F [F45, 1-(4-(2-(Trifluoromethoxy)phenyl)-1,2,5-oxadiazol-3-yl)-3-(4-(1-(4-(trifluoromethoxy)phenyl)-1H-1,2,4-triazol-3-yl)phenyl)urea] | 50 to 100 | 50 to 100 | – | A (80-100) | 50 to 100 |
| FC(F)(F)Oc1ccc(-n2cnc(-c3ccc(CCNC(=S)Nc4ccnn4-c4ccccc4)cc3)n2)cc1 [F65, 1-(1-phenyl-1H-pyrazol-5-yl)-3-(4-(1-(4-(trifluoromethoxy)phenyl)-1H-1,2,4-triazol-3-yl)phenethyl)thiourea] | 50 to 100 | 50 to 100 | – | A (80-100) | 50 to 100 |
